What was measured:
Assay type in all cases: cell-based
[1] = test system: human dermal fibroblasts; HDFs; test: Alizarin Red S staining and absorbance, compound panel, Examples 29-30; conditions: calcification induction medium; compounds 2 μM (Pifthrin-α 5 μM, DZnep 50 nM); day 28; FIG. 33, 34
Description: The compounds added to the medium and the concentrations thereof are as follows. • I-BET151: 2 μM • Pifthrin-α: 5 μM • PD0325901: 2 μM • 2-Me-5HT: 2 μM • CX4945: 2 μM • CHIR99021: 2 μM • Forskolin: 2 μM • DZnep: 50 nM • D4476: 2 μM • SB431542: 2 μM • ALK5 i II: 2 μM.
In the experiment of Example 29, the solution after staining with the Alizarin Red S staining solution was collected in a 96 well plate and the absorbance (OD 550 nm) was measured with an absorption spectrometer.

[2] = test system: Human normal skin-derived fibroblasts (HDFs); test: Real-time RT-PCR of ALP, Osteocalcin, Bonesialoprotein, Example 35; conditions: day 18, FIG. 39
Description: The concentrations of the small molecule compound or cytokine added are as follows. • ALK5 i II: 4 μM • 1α,25-dihydroxy Vitamin D3 (VD3): 5 nM • Human insulin-like growth factor-1 (IGF-1): 100 ng/ml.

[3] = test system: human dermal fibroblasts; HDFs; test: Real-time RT-PCR of AdipoQ, Example 14; conditions: D4476, SB431542, ALK5 Inhibitor II 2 μM, PD0325901 1 μM, in addition to T3 and Rosiglitazone; day 14; FIG. 14
Description: The concentrations of the additives are as follows: • T3: 1 nM • Rosiglitazone: 1 μM • D4476: 2 μM. • Pifithrin alpha [p53 inhibitor]: 5 μM • PD0325901: 1 μM • SB431542: 2 μM • ALK5 Inhibitor II: 2 μM.

[4] = test system: human dermal fibroblasts; HDFs; test: BODIPY staining and fluorescence intensity, Example 15; conditions: compound 2 μM in addition to T3 1 nM and Rosiglitazone 1 μM; day 14; FIG. 15A, 15B
Description: The concentrations of the additives are as follows: • T3: 1 nM • Rosiglitazone: 1 μM • D4476: 2 μM • SB431541: 2 μM • ALK5 inhibitor II: 2 μM.
The cells were fixed with 4% para-formaldehyde, washed with PBS(−), reacted for 5 min with BODIPY 493/503 (Invitrogen)/PBS solution at room temperature and washed 3 times with PBS. The cells were photographed with a fluorescence microscope at ×200 magnification and the fluorescence intensity was measured.

[5] = test system: Human normal skin-derived fibroblasts (HDFs); test: Real-time RT-PCR of UCP1, four inhibitors, Example 39; conditions: 4 μM, 8 μM, 12 μM or 16 μM in adipocyte induction medium Day 1 to Day 8, then compound-free to day 14; FIG. 43
Description: The addition concentration of the compound was 4 μM, 8 μM, 12 μM or 16 μM. […] Thereafter, in Day 9-Day 14, culturing was performed in a medium free of ALK5 inhibitor II, LY2157299, SB431542, D4476.

[6] = test system: human dermal fibroblasts; HDFs; test: Oil Red O staining, fibroblast to brown adipocyte, Example 12; conditions: compound 2 μM in addition to T3 1 nM and Rosiglitazone 1 μM, adipocyte induction medium; day 14; FIG. 12
Description: (§1) The concentrations of the additives are as follows: • T3: 1 nM • Rosiglitazone: 1 μM • D4476: 2 μM • Pifithrin alpha [p53 inhibitor]: 5 μM • SB431542: 2 μM • ALK5 Inhibitor II: 2 μM.
Then, the cells were washed with sterile distilled water and photographed with a phase contrast microscope at ×100 magnification.

[7] = test system: human dermal fibroblasts; HDFs; test: Alizarin Red S staining (absorbance OD 550 nm), Example 2; conditions: each compound 2 μM in calcification induction medium; day 24; FIG. 2
Description: (§2) The concentrations of the compounds are as follows: • D4476: 2 μM • SB431542: 2 μM • ALK5 inhibitor II: 2 μM.

[8] = test system: human dermal fibroblasts; HDFs; test: Bodipy staining quantification in WA medium, four inhibitors, Example 49; conditions: 16 μM compound and 1 μM Rosiglitazone, day 12, FIG. 53
[9] = test system: human dermal fibroblasts; HDFs; test: Alizarin Red S staining (staining figure), fibroblast to osteoblast, Example 1; conditions: each compound 2 μM in calcification induction medium; day 24; FIG. 1
Description: It was washed 3 times with sterile distilled water. […] The well after staining was washed with sterile distilled water and photographed.
The concentrations of the compounds are as follows: • D4476: 2 μM • ALK5 inhibitor II: 2 μM • SB431542: 2 μM.

[10] = test system: Human normal skin-derived fibroblasts (HDFs); test: Immunostaining of UCP1, four inhibitors, Example 40; conditions: LY2157299 8 μM, SB431542 4 μM, D4476 4 μM, Day 1 to Day 8, day 14, FIG. 44; for conversion of fibroblast to brown adipocyte, UCP1 protein: ALK5 inhibitor II 4 μM; for staining with anti-UCP1 antibody: groups 3-6: ALK5 inhibitor II 4 μM
Description: Human normal skin-derived fibroblasts (HDFs) were suspended in a general medium (DMEM added with 10% FBS). […] The adipocyte induction medium is DMEM added with 1 nM T3, 1 μM Rosiglitazone, 0.5 mM 3-isobutyl-1-methylxanthine (IBMX), 0.5 μM dexamethasone, 1 μg/mL Insulin and 10% FBS. Once every 2 days, the culture medium was exchanged with a fresh one, and culturing was performed from Day 1 to Day 8. Thereafter, from Day 9 to Day 14, the cells were cultured in an adipocyte induction medium free of ALK5 inhibitor II, LY2157299, SB431542, D4476. On day 14, the culture medium was removed by suction from each well, and washed with PBS(−). After fixing with 4% para-formaldehyde, the well was washed with PBS (−), Permanent wave Buffer (0.2% Triton-X addition PBS) was added and the well was incubated for 15 min. After washing 3 times with PBS(−), Blocking One was added, and the mixture was incubated at room temperature for 60 min. Anti-UCP-1 antibody (RD MAB6158) was added and the mixture was reacted for 2 hrs at room temperature, and washed 3 times with Wash buffer. CF488-conjugated anti-mouse Ig antibody (Biotum 20014) was added and the mixture was reacted for 2 hrs at room temperature, and washed 3 times with PBS(−). After nuclear staining with SlowFade Gold antifade reagent with DAPI manufactured by Lifetechnology, the cells were photographed with a fluorescence microscope at ×100 magnification.

[11] = test system: human dermal fibroblasts; HDFs; test: Real-time RT-PCR of Osteocalcin and Alkaline Phosphatase, Example 3; conditions: each compound 2 μM in calcification induction medium; day 24; FIG. 3
Description: as §2

[12] = test system: human dermal fibroblasts; HDFs; test: Real-time RT-PCR of CIDEA, Example 13; conditions: compound 2 μM in addition to T3 1 nM and Rosiglitazone 1 μM, adipocyte induction medium; day 14; FIG. 13
Description: as §1

[13] = test system: Human normal skin-derived fibroblasts (HDFs); test: Alizarin Red S and ALP staining, absorbance, TGF-β pathway inhibitor panel, Examples 31-32; conditions: for efficiency in converting fibroblast to osteoblast (summary statement): description, conditions not given
Description: On day 21, the culture medium was removed from a part of the well, washed with PBS(-), and fixed with a fixative. It was washed 3 times with sterile distilled water. […] In the experiment of Example 31, the solution after staining with the Alizarin Red S staining solution was collected in a 96 well plate and the absorbance (OD 550 nm) was measured with an absorption spectrometer.

[14] = test system: human dermal fibroblasts; HDFs; test: Real-time PCR of AdipoQ, FABP4, PPAR-γ, four inhibitors with Rosiglitazone, Example 50; conditions: WA medium added with 1 μM Rosiglitazone and 16 μM compound; day 12
Excerpt: On day 12, RNA was recovered from the cells and, in the same manner as in Example 47, mRNA of AdipoQ, FABP4 (mature adipocyte marker), and PPAR-γ (preadipocyte marker) was quantified.

[15] = test system: human dermal fibroblasts; HDFs; test: Bodipy staining in WA medium, four inhibitors, Example 48; conditions: day 12, FIG. 52; for lipid droplets stained with Bodipy, inhibitor alone: WA medium added with 16 μM compound alone; for lipid droplets stained with Bodipy / conversion to white adipocyte, inhibitor and Rosiglitazone: WA medium added with 16 μM compound and 1 μM Rosiglitazone

Q: For `COc1cc2c(cc1-c1c(C)noc1C)ncc1[nH]c(=O)n([C@H](C)c3ccccn3)c12` [I-BET], which “conversion from fibroblast to osteoblast, Alizarin Red S staining and absorbance” value (from here on “conversion from fibroblast to osteoblast”) [1] is on record?
A: do not induce conversion from fibroblast to osteoblast

Q: How did the “conversion from fibroblast to osteoblast” value [1] turn out when `Cc1[nH]c2ccc(O)cc2c1CCN` [2-Me-5HT] was run?
A: do not induce conversion from fibroblast to osteoblast

Q: For “IGF-1: Human insulin-like growth factor-1”, which “mRNA expression of BSP, ALK5 i II and IGF-1 compared to ALK5 i II” value ([2]; IGF-1 100 ng/ml added with ALK5 i II 4 μM) is on record?
A: further significantly increased

Q: `Cc1ccc(C(=O)Cn2c3c(sc2=N)CCCC3)cc1` [Pifthrin-α] was tested. Which “conversion from fibroblast to osteoblast” value [1] did it give?
A: do not induce conversion from fibroblast to osteoblast

Q: For `Cc1c[nH]c(-c2cnc(NCCNc3ccc(C#N)cn3)nc2-c2ccc(Cl)cc2Cl)n1` [CHIR], which “conversion from fibroblast to osteoblast” value [1] is on record?
A: do not induce conversion from fibroblast to osteoblast

Q: What does the source list for `O=C(NOC[C@H](O)CO)c1ccc(F)c(F)c1Nc1ccc(I)cc1F` [PD0325901]?
A: conversion of fibroblast to brown adipocytes, AdipoQ mRNA [3]: converted fibroblast to brown adipocytes expressing mRNA of AdipoQ gene; conversion from fibroblast to osteoblast, Alizarin Red S staining and absorbance [1]: do not induce conversion from fibroblast to osteoblast

Q: Which results are given for `NC(=O)c1ccc(-c2nc(-c3ccc4c(c3)OCCO4)c(-c3ccccn3)[nH]2)cc1` [D4476, 4-[4-(2,3-dihydro-1,4-benzodioxin-6-yl)-5-(2-pyridinyl) 1H-imidazol-2-yl]-benzamide]?
A: conversion of fibroblast to brown adipocytes, BODIPY staining and fluorescence intensity [4]: converted fibroblast to brown adipocytes having lipid droplets stained with BODIPY; conversion of fibroblast to brown adipocyte, UCP1 mRNA [5]: converted fibroblast to brown adipocyte strongly expressing UCP1 gene; conversion of fibroblast to brown adipocyte, Oil Red O staining [6]: converted fibroblast to brown adipocyte; conversion of human fibroblast to osteoblast, Alizarin Red S staining (absorbance OD 550 nm) [7]: converted to osteoblast having calcified bone matrix production ability; fat accumulation (BODIPY) / conversion to white adipocyte, co-addition of Rosiglitazone [8]: more strongly induced fat accumulation than by the addition of Rosiglitazone alone; conversion of human fibroblast to osteoblast, Alizarin Red S staining (staining figure) [9]: converted to osteoblast having calcified is bone matrix production ability; conversion of fibroblast to brown adipocytes, AdipoQ mRNA [3]: converted fibroblast to brown adipocytes expressing mRNA of AdipoQ gene; conversion from fibroblast to osteoblast, Alizarin Red S staining and absorbance [1]: induce conversion from fibroblast to osteoblast; conversion of fibroblast to brown adipocyte, UCP1 protein [10]: converted fibroblast to brown adipocyte expressing UCP1 protein; staining with anti-UCP1 antibody [10]: many cells were stained with anti-UCP1 antibody; conversion of human fibroblast to osteoblast, Osteocalcin and Alkaline Phosphatase mRNA [11]: converted to osteoblast expressing osteocalcin and alkaline phosphatase gene; conversion of fibroblast to brown adipocytes, CIDEA mRNA [12]: converted fibroblast to brown adipocytes expressing mRNA of CIDEA gene; efficiency in converting fibroblast to osteoblast (summary statement) [13]: highly efficient in converting fibroblast to osteoblast; conversion of human fibroblast to white adipocyte (mRNA markers) [14]: converted human fibroblast to white adipocyte; lipid droplets stained with Bodipy, inhibitor alone [15]: only a few cells contained lipid droplets stained with Bodipy; lipid droplets stained with Bodipy / conversion to white adipocyte, inhibitor and Rosiglitazone [15]: many cells were stained

Q: For `C=C1/C(=C\C=C2/CCC[C@]3(C)[C@@H]([C@H](C)CCCC(C)(C)O)CC[C@@H]23)C[C@@H](O)C[C@@H]1O` [VD3, 1α,25-dihydroxy Vitamin D3], which “mRNA expression of OC, ALK5 i II and VD3 compared to ALK5 i II” value ([2]; VD3 5 nM added with ALK5 i II 4 μM) is on record?
A: significantly increased

Q: Which “conversion of fibroblast to brown adipocytes, BODIPY staining and fluorescence intensity” value [4] does the source give for `NC(=O)c1ccc(-c2nc(-c3ccc4c(c3)OCO4)c(-c3ccccn3)[nH]2)cc1` [SB431542, 4-[4-(1,3-Benzodioxol-5-yl)-5-(pyridin-2-yl)-1H-imidazol-2-yl]benzamide] here?
A: converted fibroblast to brown adipocytes having lipid droplets stained with BODIPY

Q: What about the “conversion of fibroblast to brown adipocyte, UCP1 mRNA” value [5] of the same compound?
A: converted fibroblast to brown adipocyte strongly expressing UCP1 gene

Q: And the “conversion of fibroblast to brown adipocyte, Oil Red O staining” value [6]?
A: converted fibroblast to brown adipocyte

Q: What about the “conversion of human fibroblast to osteoblast, Alizarin Red S staining (absorbance OD 550 nm)” value [7] of the same compound?
A: converted to osteoblast having calcified bone matrix production ability

Q: What about the “fat accumulation (BODIPY) / conversion to white adipocyte, co-addition of Rosiglitazone” value [8] of the same compound?
A: more strongly induced fat accumulation than by the addition of Rosiglitazone alone

Q: What about the “conversion of human fibroblast to osteoblast, Alizarin Red S staining (staining figure)” value [9] of the same compound?
A: converted to osteoblast having calcified is bone matrix production ability

Q: And the “conversion of fibroblast to brown adipocytes, AdipoQ mRNA” value [3]?
A: converted fibroblast to brown adipocytes expressing mRNA of AdipoQ gene

Q: And the “conversion from fibroblast to osteoblast” value [1]?
A: induce conversion from fibroblast to osteoblast

Q: And the “conversion of fibroblast to brown adipocyte, UCP1 protein” value [10]?
A: converted fibroblast to brown adipocyte expressing UCP1 protein

Q: What about the “staining with anti-UCP1 antibody” value [10] of the same compound?
A: many cells were stained with anti-UCP1 antibody

Q: And the “conversion of human fibroblast to osteoblast, Osteocalcin and Alkaline Phosphatase mRNA” value [11]?
A: converted to osteoblast expressing osteocalcin and alkaline phosphatase gene

Q: What about the “conversion of fibroblast to brown adipocytes, CIDEA mRNA” value [12] of the same compound?
A: converted fibroblast to brown adipocytes expressing mRNA of CIDEA gene

Q: And the “efficiency in converting fibroblast to osteoblast (summary statement)” value [13]?
A: highly efficient in converting fibroblast to osteoblast

Q: And the “conversion of human fibroblast to white adipocyte (mRNA markers)” value [14]?
A: converted human fibroblast to white adipocyte

Q: And the “lipid droplets stained with Bodipy, inhibitor alone” value [15]?
A: only a few cells contained lipid droplets stained with Bodipy

Q: What about the “lipid droplets stained with Bodipy / conversion to white adipocyte, inhibitor and Rosiglitazone” value [15] of the same compound?
A: many cells were stained

Q: With `Fc1ccc(Cl)cc1-c1nc(Nc2ccncc2)c2nccnc2n1` [SD208, 2-(5-Chloro-2-fluorophenyl)-4-[(4-pyridyl)amino]pteridine] as the compound, how does the “conversion of human fibroblast to osteoblast, Alizarin Red S / ALP staining and absorbance” value ([13]; calcification induction medium, compounds 1 or 4 μM, TGF-β 10 ng/ml, day 21, FIG. 35, 36) read?
A: can strongly convert human fibroblast to osteoblast

Q: And the “efficiency in converting fibroblast to osteoblast (summary statement)” value [13]?
A: highly efficient in converting fibroblast to osteoblast

Q: For `Nc1nccc2c1ncn2[C@@H]1C=C(CO)C(O)[C@@H]1O` (stereo partly shown) [DZnep], which “conversion from fibroblast to osteoblast” value [1] is on record?
A: do not induce conversion from fibroblast to osteoblast
